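Briefly, cells in 96-well plates were exposed to five compound concentrations for 48 h, and endpoints were estimated by linear interpolation. TGI: concentration producing complete growth inhibition.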
How the values were obtained:
Assay in all cases: DTP human tumour cell line panel, 48 h
[1] = system: CCRF-CEM leukemia
[2] = system: KM12 colon
[3] = system: COLO 205 colon
[4] = system: SK-MEL-2 melanoma
[5] = system: UO-31 renal
[6] = system: SW-620 colon
[7] = system: SNB-19 CNS
[8] = system: HCC-2998 colon
[9] = system: HCT-15 colon
[10] = system: 786-0 renal
[11] = system: NCI-H522 lung
[12] = system: RXF 393 renal
[13] = system: NCI-H226 lung
[14] = system: UACC-257 melanoma
[15] = system: MCF7 breast
[16] = system: UACC-62 melanoma
[17] = system: RPMI-8226 leukemia
[18] = system: MDA-MB-231 breast
[19] = system: HCT-116 colon
[20] = system: SF-295 CNS
[21] = system: ACHN renal
[22] = system: K-562 leukemia
[23] = system: TK-10 renal
[24] = system: OVCAR-4 ovarian
[25] = system: SF-268 CNS
[26] = system: HOP-92 NSCLC
[27] = system: EKVX NSCLC
[28] = system: SK-MEL-28 melanoma
[29] = system: OVCAR-5 ovarian
[30] = system: OVCAR-8 ovarian
[31] = system: OVCAR-3 ovarian
[32] = system: MDA-N
[33] = system: HL-60(TB) leukemia
[34] = system: MALME-3M melanoma
[35] = system: BT-549 breast
[36] = system: M14 melanoma
[37] = system: SR leukemia
[38] = system: NCI-H460 lung
[39] = system: DU-145 prostate
[40] = system: CAKI-1 renal
[41] = system: IGROV1 ovarian
[42] = system: SK-MEL-5 melanoma
[43] = system: U251 CNS
[44] = system: SF-539 CNS
[45] = system: HT29 colon
[46] = system: NCI-H23 lung
[47] = system: SK-OV-3 ovarian
[48] = system: NCI/ADR-RES ovarian
[49] = system: HS 578T breast
[50] = system: A549 NSCLC
[51] = system: MOLT-4 leukemia
[52] = system: HOP-62 NSCLC
[53] = system: SNB-75 CNS
[54] = system: SN12C renal
[55] = system: LOX IMVI melanoma
[56] = system: MDA-MB-435
[57] = system: PC-3 prostate
[58] = system: T-47D breast
[59] = system: A498 renal

Compound: O=C(O)c1ccccc1CC1Cc2ccccc2C1
- TGI [1]: > 100 µM
- TGI [2]: > 100 µM
- TGI [3]: > 100 µM
- TGI [4]: > 100 µM
- TGI [5]: > 100 µM
- TGI [6]: > 100 µM
- TGI [7]: > 100 µM
- TGI [8]: > 100 µM
- TGI [9]: > 100 µM
- TGI [10]: > 100 µM
- TGI [11]: > 100 µM
- TGI [12]: > 100 µM
- TGI [13]: > 100 µM
- TGI [14]: > 100 µM
- TGI [15]: > 100 µM
- TGI [16]: > 100 µM
- TGI [17]: > 100 µM
- TGI [18]: > 100 µM
- TGI [19]: > 100 µM
- TGI [20]: > 100 µM
- TGI [21]: > 100 µM
- TGI [22]: > 100 µM
- TGI [23]: > 100 µM
- TGI [24]: > 100 µM
- TGI [25]: > 100 µM
- TGI [26]: > 100 µM
- TGI [27]: > 100 µM
- TGI [28]: > 100 µM
- TGI [29]: > 100 µM
- TGI [30]: > 100 µM
- TGI [31]: > 100 µM
- TGI [32]: > 100 µM
- TGI [33]: > 100 µM
- TGI [34]: > 100 µM
- TGI [35]: > 100 µM
- TGI [36]: > 100 µM
- TGI [37]: > 100 µM
- TGI [38]: > 100 µM
- TGI [39]: > 100 µM
- TGI [40]: > 100 µM
- TGI [41]: > 100 µM
- TGI [42]: > 100 µM
- TGI [43]: > 100 µM
- TGI [44]: > 100 µM
- TGI [45]: > 100 µM
- TGI [46]: > 100 µM
- TGI [47]: > 100 µM
- TGI [48]: > 100 µM
- TGI [49]: > 100 µM
- TGI [50]: > 100 µM
- TGI [51]: > 100 µM
- TGI [52]: > 100 µM
- TGI [53]: > 100 µM
- TGI [54]: > 100 µM
- TGI [55]: > 100 µM
- TGI [56]: > 100 µM
- TGI [57]: > 100 µM
- TGI [58]: > 100 µM

Compound: CN(C)c1ccc(/C=C/c2ccc3ccccc3[n+]2C)cc1
- TGI [1]: 24.6 µM
- TGI [2]: 13.6 µM
- TGI [59]: 60.1 µM
- TGI [4]: 4.02 µM
- TGI [5]: 9.62 µM
- TGI [6]: 12.3 µM
- TGI [7]: > 100 µM
- TGI [8]: 16.3 µM
- TGI [9]: 30.4 µM
- TGI [10]: > 100 µM
- TGI [12]: 9.84 µM
- TGI [13]: 13.3 µM
- TGI [15]: 14.4 µM
- TGI [16]: 41 µM
- TGI [18]: 12.6 µM
- TGI [19]: 10.9 µM
- TGI [20]: 10 µM
- TGI [21]: 55.3 µM
- TGI [22]: > 100 µM
- TGI [23]: 17.7 µM
- TGI [26]: 5.19 µM
- TGI [27]: 5.85 µM
- TGI [28]: 12.7 µM
- TGI [29]: 26.2 µM
- TGI [30]: 4.3 µM
- TGI [31]: 15.5 µM
- TGI [32]: 13 µM
- TGI [33]: 3.48 µM
- TGI [34]: 11.2 µM
- TGI [35]: 10.5 µM
- TGI [36]: 17.1 µM
- TGI [37]: 4.34 µM
- TGI [38]: 12 µM
- TGI [39]: 25.5 µM
- TGI [41]: > 100 µM
- TGI [42]: 13.5 µM
- TGI [43]: 20.7 µM
- TGI [45]: 8.46 µM
- TGI [46]: 9.26 µM
- TGI [47]: 60.6 µM
- TGI [48]: > 100 µM
- TGI [49]: > 100 µM
- TGI [50]: 22.5 µM
- TGI [51]: 4.53 µM
- TGI [52]: 25.6 µM
- TGI [54]: 15.8 µM
- TGI [56]: 13.3 µM
- TGI [57]: 9.84 µM
- TGI [58]: 6.26 µM

Compound: C=CC(=O)NC(O)(C(=O)OCC)C(F)(F)F (stereo not drawn)
- TGI [1]: > 100 µM
- TGI [2]: > 100 µM
- TGI [3]: > 100 µM
- TGI [4]: > 100 µM
- TGI [5]: > 100 µM
- TGI [6]: > 100 µM
- TGI [7]: > 100 µM
- TGI [8]: > 100 µM
- TGI [9]: > 100 µM
- TGI [11]: > 100 µM
- TGI [12]: > 100 µM
- TGI [13]: > 100 µM
- TGI [14]: > 100 µM
- TGI [15]: > 100 µM
- TGI [16]: > 100 µM
- TGI [17]: > 100 µM
- TGI [18]: > 100 µM
- TGI [19]: > 100 µM
- TGI [20]: > 100 µM
- TGI [21]: > 100 µM
- TGI [22]: > 100 µM
- TGI [23]: > 100 µM
- TGI [24]: > 100 µM
- TGI [25]: > 100 µM
- TGI [26]: > 100 µM
- TGI [27]: > 100 µM
- TGI [28]: > 100 µM
- TGI [29]: > 100 µM
- TGI [30]: > 100 µM
- TGI [31]: > 100 µM
- TGI [32]: > 100 µM
- TGI [33]: > 100 µM
- TGI [34]: > 100 µM
- TGI [35]: > 100 µM
- TGI [36]: > 100 µM
- TGI [37]: > 100 µM
- TGI [39]: > 100 µM
- TGI [40]: > 100 µM
- TGI [41]: > 100 µM
- TGI [42]: > 100 µM
- TGI [43]: > 100 µM
- TGI [44]: > 100 µM
- TGI [45]: > 100 µM
- TGI [46]: > 100 µM
- TGI [47]: > 100 µM
- TGI [48]: > 100 µM
- TGI [49]: > 100 µM
- TGI [50]: > 100 µM
- TGI [51]: > 100 µM
- TGI [52]: > 100 µM
- TGI [53]: > 100 µM
- TGI [54]: > 100 µM
- TGI [55]: > 100 µM
- TGI [56]: > 100 µM
- TGI [57]: > 100 µM
- TGI [58]: > 100 µM

Reference: PubChem BioAssay (NCI)
